Target: USP1 (construct USP1 (I-785, GG670, 671AA)/UAF1 (I-677)-Flag) (Homo sapiens (Human), UniProt O94782, G670A/G671A)
Experiment: Ubiquitin-Rhodamine 110 assay for USP1 activity
Format: biochemical
Conditions: USP1/UAF1 25 pM, Ub-Rh110 25 nM, 30 min preincubation
Experimental: Example 53: Ubitquin-Rhodamine 110 Assay for USP1 Activity
The HTS assay was performed in a final volume of 20 μL in assay buffer containing 20 mM Tris-HCl (pH 8.0, (1M Tris-HCl, pH 8.0 solution; Corning 46-031-CM)), 2 mM CaCl2 (1M Calcium Chloride solution; Sigma #21114) 1 mM GSH (L-Glutathione reduced; Sigma #G4251), 0.01% Prionex ([…] filtered, Sigma #G-0411), and 0.01% Triton X-100. Stock compound solutions were stored at −20° C. as 10 mM in DMSO. Up to 1 month prior to the assay, 2 mM test compounds were pre-dispensed into assay plates (Black, low volume; Corning #3820) and frozen at −20° C. Prestamped assay plates were allowed to come to room temperature on the day of the assay. For the screen, 100 nL of 2 mM was pre-dispensed for a final screening concentration of […] (DMSO(fc)=0.5%). The final concentration of the enzyme (USP1, construct USP1 (I-785, GG670, 671AA)/UAF1 (I-677)-Flag; Viva) in the assay was 100 pM. Final substrate (Ub-Rh110; Ubiquitin-Rhodamine 110, R&D Systems #U-555) concentration was 25 nM with [Ub-Rh110]<<Km. […] Plates were incubated stacked for 45 minutes at room temperature before fluorescence was read on the Envision (Excitation at 485 nm and Emission at 535 nm; Perkin Elmer) or on the PheraSTAR (Excitation at 485 nm and Emission at 535 nm; BMG Labtech)
Nanoliter quantities of either an 8-point or 10-point, 3-fold serial dilution in DMSO was pre-dispensed into assay plates (Perkin Elmer, ProxiPlate-384 F Plus, #6008269) for a final test concentration range of either 25 μM to 11 nM or 25 μM to 1.3 nM, respectively. The final concentration of the enzyme (USP1, construct USP1 (I-785, GG670, 671AA)/UAF1 (I-677)-Flag; Viva) in the assay was 25 pM. Final substrate (Ub-Rh110; Ubiquitin-Rhodamine 110, R&D Systems #U-555) concentration was 25 nM with [Ub-Rh110]<<Km. […] Plates were incubated stacked for 20 minutes at room temperature before 5 μL of stop solution (final concentration of 10 mM citric acid in assay buffer (Sigma, #251275-500G)). Fluorescence was read on the Envision (Excitation at 485 nm and Emission at 535 nm; Perkin Elmer) or on the PheraSTAR (Excitation at 485 nm and Emission at 535 nm; BMG Labtech).
For both assay formats data were reported as percent inhibition compared with control wells based on the following equation: % inh=[1−((FLU−AveLow)/(AveHigh−AveLow))]×100 where FLU=measured Fluorescence, AveLow=average Fluorescence of no enzyme control (n=16), and AveHigh=average Fluorescence of DMSO control (n=16). IC50 values were determined by curve fitting of the standard 4 parameter logistic fitting algorithm included in the Activity Base software package: IDBS XE Designer Model205. Data is fitted using the Levenburg Marquardt algorithm.

Chain of USP1 (construct USP1 (I-785, GG670, 671AA)/UAF1 (I-677)-Flag) (O94782 whole entry G670A/G671A): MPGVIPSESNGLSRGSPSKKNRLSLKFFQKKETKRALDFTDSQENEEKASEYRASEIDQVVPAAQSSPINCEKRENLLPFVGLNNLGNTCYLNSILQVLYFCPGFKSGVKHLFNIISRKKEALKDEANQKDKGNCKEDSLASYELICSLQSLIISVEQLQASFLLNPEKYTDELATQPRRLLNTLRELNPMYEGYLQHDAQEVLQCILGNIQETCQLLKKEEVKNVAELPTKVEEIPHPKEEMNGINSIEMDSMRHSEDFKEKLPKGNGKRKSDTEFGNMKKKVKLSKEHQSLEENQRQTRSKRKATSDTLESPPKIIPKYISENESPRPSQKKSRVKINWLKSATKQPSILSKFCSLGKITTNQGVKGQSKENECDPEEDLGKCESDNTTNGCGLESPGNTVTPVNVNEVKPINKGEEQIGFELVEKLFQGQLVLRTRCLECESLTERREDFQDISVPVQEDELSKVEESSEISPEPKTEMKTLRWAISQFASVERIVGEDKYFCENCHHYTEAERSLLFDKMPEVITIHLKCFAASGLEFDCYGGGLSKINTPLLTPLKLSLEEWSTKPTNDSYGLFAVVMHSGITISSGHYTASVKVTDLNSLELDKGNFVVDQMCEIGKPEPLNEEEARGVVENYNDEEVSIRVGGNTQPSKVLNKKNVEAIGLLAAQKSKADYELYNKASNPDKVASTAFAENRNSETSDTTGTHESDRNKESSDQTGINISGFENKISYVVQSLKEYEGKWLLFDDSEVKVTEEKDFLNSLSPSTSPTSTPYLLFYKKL
Chain of USP1 (construct USP1 (I-785, GG670, 671AA)/UAF1 (I-677)-Flag) (Q8TAF3 whole entry partner): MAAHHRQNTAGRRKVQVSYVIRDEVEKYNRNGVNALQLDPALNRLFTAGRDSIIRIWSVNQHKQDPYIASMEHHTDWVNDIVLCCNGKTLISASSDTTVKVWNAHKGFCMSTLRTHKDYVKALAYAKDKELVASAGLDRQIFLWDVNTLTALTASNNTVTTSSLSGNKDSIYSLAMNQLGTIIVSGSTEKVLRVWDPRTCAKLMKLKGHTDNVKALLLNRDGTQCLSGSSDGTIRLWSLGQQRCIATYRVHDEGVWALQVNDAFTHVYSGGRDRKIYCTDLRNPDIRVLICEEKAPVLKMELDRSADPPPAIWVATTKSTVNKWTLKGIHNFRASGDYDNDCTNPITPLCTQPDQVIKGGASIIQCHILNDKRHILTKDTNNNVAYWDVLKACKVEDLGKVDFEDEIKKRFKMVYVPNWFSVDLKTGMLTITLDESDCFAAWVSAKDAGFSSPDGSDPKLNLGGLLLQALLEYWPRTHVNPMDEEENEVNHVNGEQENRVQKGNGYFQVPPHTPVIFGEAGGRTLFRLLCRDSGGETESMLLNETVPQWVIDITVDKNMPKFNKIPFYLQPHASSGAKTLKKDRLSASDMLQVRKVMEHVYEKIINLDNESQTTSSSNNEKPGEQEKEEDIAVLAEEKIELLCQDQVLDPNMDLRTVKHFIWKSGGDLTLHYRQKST

Compound: CC(C)c1ccccc1-c1ncc2[nH]c(=O)n([C@H](C)c3ccc(-n4cccn4)cc3)c2n1 (single isomer, unassigned) [Compound I-158]
- IC50: < 50 nM

Compound: CC(C)c1ccccc1-c1ncc2[nH]c(=O)n(Cc3ccc(-n4ccc([C@H]5CCCNC5)n4)cc3)c2n1 (single isomer, unassigned) [Compound I-225]
- IC50: 50 to 200 nM

Compound: Cc1cc(C)n(-c2ccc(Cn3c(=O)[nH]c4cnc(-c5ccccc5C(C)C)nc43)cc2)n1 [Compound I-1, 9-(4-(3,5-Dimethyl-1H-pyrazol-1-yl)benzyl)-2-(2-isopropylphenyl)-7,9-dihydro-8H-purin-8-one]
- IC50: < 50 nM

Compound: CC(C)c1ncccc1-c1ncc2[nH]c(=O)n(Cc3ccc(-n4nccn4)cc3)c2n1 [Compound I-3, 9-(4-(2H-1,2,3-triazol-2-yl)benzyl)-2-(2-isopropylpyridin-3-yl)-7,9-dihydro-8H-purin-8-one]
- IC50: 200 to 2000 nM

Compound: O=c1[nH]c2cnc(-c3cccnc3OC(F)F)nc2n1Cc1ccc(-n2nccn2)cc1 [Compound I-4, 9-(4-(2H-1,2,3-triazol-2-yl)benzyl)-2-(2-(difluoromethoxy)pyridin-3-yl)-7,9-dihydro-8H-purin-8-one]
- IC50: > 2000 nM

Compound: CC(C)COc1ncccc1-c1ncc2[nH]c(=O)n(Cc3ccc(-n4nccn4)cc3)c2n1 [Compound I-5, 9-(4-(2H-1,2,3-triazol-2-yl)benzyl)-2-(2-isobutoxypyridin-3-yl)-7,9-dihydro-8H-purin-8-one]
- IC50: > 2000 nM

Compound: CC(C)c1ccccc1-c1ncc2c(n1)n(Cc1ccc(-n3cccn3)cc1)c(=O)n2C [Compound I-6, 9-(4-(1H-pyrazol-1-yl)benzyl)-2-(2-isopropylphenyl)-7-methyl-7,9-dihydro-8H-purin-8-one]
- IC50: 50 to 200 nM

Compound: CC(C)c1ncccc1-c1ncc2c(n1)n(Cc1ccc(-n3cccn3)cc1)c(=O)n2C [Compound I-7, 9-(4-(1H-pyrazol-1-yl)benzyl)-2-(2-isopropylpyridin-3-yl)-7-methyl-7,9-dihydro-8H-purin-8-one]
- IC50: 200 to 2000 nM

Compound: CC(C)c1c(F)cccc1-c1ncc2c(n1)n(Cc1ccc(-n3cccn3)cc1)c(=O)n2C [Compound I-8, 9-(4-(1H-pyrazol-1-yl)benzyl)-2-(3-fluoro-2-isopropylphenyl)-7-methyl-7,9-dihydro-8H-purin-8-one]
- IC50: < 50 nM

Compound: CC(C)c1ccc(F)cc1-c1ncc2c(n1)n(Cc1ccc(-n3cccn3)cc1)c(=O)n2C [Compound I-9, 9-(4-(1H-pyrazol-1-yl)benzyl)-2-(5-fluoro-2-isopropylphenyl)-7-methyl-7,9-dihydro-8H-purin-8-one]
- IC50: 200 to 2000 nM

Compound: CC(C)c1cc(F)ccc1-c1ncc2c(n1)n(Cc1ccc(-n3cccn3)cc1)c(=O)n2C [Compound I-10, 9-(4-(1H-pyrazol-1-yl)benzyl)-2-(4-fluoro-2-isopropylphenyl)-7-methyl-7,9-dihydro-8H-purin-8-one]
- IC50: 200 to 2000 nM

Compound: CC(C)c1cccc(F)c1-c1ncc2c(n1)n(Cc1ccc(-n3cccn3)cc1)c(=O)n2C [Compound I-11, 9-(4-(1H-pyrazol-1-yl)benzyl)-2-(2-fluoro-6-isopropylphenyl)-7-methyl-7,9-dihydro-8H-purin-8-one]
- IC50: < 50 nM

Compound: CC(C)c1ncccc1-c1ncc2[nH]c(=O)n([C@@H](C)c3ccc(-n4cccn4)cc3)c2n1 [Compound I-13, (S)-9-(1-(4-(1H-pyrazol-1-yl)phenyl)ethyl)-2-(2-isopropylpyridin-3-yl)-7,9-dihydro-8H-purin-8-one]
- IC50: 200 to 2000 nM

Compound: CC(C)c1ncccc1-c1ncc2[nH]c(=O)n([C@H](C)c3ccc(-n4cccn4)cc3)c2n1 [Compound I-14, (R)-9-(1-(4-(1H-pyrazol-1-yl)phenyl)ethyl)-2-(2-isopropylpyridin-3-yl)-7,9-dihydro-8H-purin-8-one]
- IC50: 50 to 200 nM

Compound: CC(C)Oc1cc(F)ccc1-c1ncc2[nH]c(=O)n(Cc3ccc(-n4nccn4)cc3)c2n1 [Compound I-15, 9-(4-(2H-1,2,3-triazol-2-yl)benzyl)-2-(4-fluoro-2-isopropoxyphenyl)-7,9-dihydro-8H-purin-8-one]
- IC50: > 2000 nM

Compound: COc1c(F)cccc1-c1ncc2[nH]c(=O)n(Cc3ccc(-n4nccn4)cc3)c2n1 [Compound I-16, 9-(4-(2H-1,2,3-triazol-2-yl)benzyl)-2-(3-fluoro-2-methoxyphenyl)-7,9-dihydro-8H-purin-8-one]
- IC50: > 2000 nM

Compound: CC(C)c1ccncc1-c1ncc2c(n1)n(Cc1ccc(-n3cccn3)cc1)c(=O)n2C [Compound I-17, 9-(4-(1H-pyrazol-1-yl)benzyl)-2-(4-isopropylpyridin-3-yl)-7-methyl-7,9-dihydro-8H-purin-8-one]
- IC50: > 2000 nM

Compound: O=c1[nH]c2cnc(-c3cccnc3OCC(F)(F)F)nc2n1Cc1ccc(-n2cccn2)cc1 [Compound I-18, 9-(4-(1H-pyrazol-1-yl)benzyl)-2-(2-(2,2,2-trifluoroethoxy)pyridin-3-yl)-7,9-dihydro-8H-purin-8-one]
- IC50: 200 to 2000 nM

Compound: CCOc1ncccc1-c1ncc2[nH]c(=O)n(Cc3ccc(-n4cccn4)cc3)c2n1 [Compound I-19, 9-(4-(1H-pyrazol-1-yl)benzyl)-2-(2-ethoxypyridin-3-yl)-7,9-dihydro-8H-purin-8-one]
- IC50: 200 to 2000 nM

Compound: COCCOc1ccccc1-c1ncc2[nH]c(=O)n(Cc3ccc(-n4cccn4)cc3)c2n1 [Compound I-20, 9-(4-(1H-pyrazol-1-yl)benzyl)-2-(2-(2-methoxyethoxy)phenyl)-7,9-dihydro-8H-purin-8-one]
- IC50: 200 to 2000 nM

Compound: CCCOc1ccccc1-c1ncc2[nH]c(=O)n(Cc3ccc(-n4cccn4)cc3)c2n1 [Compound I-21, 9-(4-(1H-pyrazol-1-yl)benzyl)-2-(2-propoxyphenyl)-7,9-dihydro-8H-purin-8-one]
- IC50: 50 to 200 nM

Compound: O=c1[nH]c2cnc(-c3ccccc3OCC(F)(F)F)nc2n1Cc1ccc(-n2cccn2)cc1 [Compound I-22, 9-(4-(1H-pyrazol-1-yl)benzyl)-2-(2-(2,2,2-trifluoroethoxy)phenyl)-7,9-dihydro-8H-purin-8-one]
- IC50: 200 to 2000 nM

Compound: O=c1[nH]c2cnc(-c3ccccc3OCC3CC3)nc2n1Cc1ccc(-n2cccn2)cc1 [Compound I-23, 9-(4-(1H-pyrazol-1-yl)benzyl)-2-(2-(cyclopropylmethoxy)phenyl)-7,9-dihydro-8H-purin-8-one]
- IC50: 50 to 200 nM

Compound: O=c1[nH]c2cnc(-c3cccnc3OCC(F)(F)F)nc2n1[C@@H]1CC[C@H]1c1ccc(-n2cccn2)cc1 [Compound I-24, 9-((1R,2S)-2-(4-(1H-pyrazol-1-yl)phenyl)cyclobutyl)-2-(2-(2,2,2-trifluoroethoxy)pyridin-3-yl)-7,9-dihydro-8H-purin-8-one]
- IC50: 50 to 200 nM

Compound: O=c1[nH]c2cnc(-c3cccc4c3OC(F)(F)O4)nc2n1Cc1ccc(-n2cccn2)cc1 [Compound I-25, 9-(4-(1H-pyrazol-1-yl)benzyl)-2-(2,2-difluorobenzo[d][1,3]dioxol-4-yl)-7,9-dihydro-8H-purin-8-one]
- IC50: 50 to 200 nM

Compound: Cn1cc(C(F)(F)F)nc1-c1ccc(Cn2c(=O)[nH]c3cnc(-c4cccnc4OCC(F)(F)F)nc32)cc1 [Compound I-26, 9-(4-(1-methyl-4-(trifluoromethyl)-1H-imidazol-2-yl)benzyl)-2-(2-(2,2,2-trifluoroethoxy)pyridin-3-yl)-7,9-dihydro-8H-purin-8-one]
- IC50: < 50 nM

Compound: CCc1ccccc1-c1ncc2[nH]c(=O)n(Cc3ccc(-n4cccn4)cc3)c2n1 [Compound I-27, 9-(4-(1H-pyrazol-1-yl)benzyl)-2-(2-ethylphenyl)-7,9-dihydro-8H-purin-8-one]
- IC50: 50 to 200 nM

Compound: Cn1ccc2cccc(-c3ncc4[nH]c(=O)n(Cc5ccc(-n6cccn6)cc5)c4n3)c21 [Compound I-29, 9-(4-(1H-pyrazol-1-yl)benzyl)-2-(1-methyl-1H-indol-7-yl)-7,9-dihydro-8H-purin-8-one]
- IC50: 200 to 2000 nM

Compound: Cn1cc(C(F)(F)F)nc1-c1ccc(Cn2c(=O)[nH]c3cnc(-c4cccnc4C4CC4)nc32)cc1 [Compound I-30, 2-(2-cyclopropylpyridin-3-yl)-9-(4-(1-methyl-4-(trifluoromethyl)-1H-imidazol-2-yl)benzyl)-7,9-dihydro-8H-purin-8-one]
- IC50: < 50 nM

— patent US10189841B2, “Purinones as ubiquitin-specific protease 1 inhibitors” (Forma Therapeutics, Inc., priority 2015, dated 2019)
